Assays:
[1] = target: MAP kinase-activated protein kinase 2 (Homo sapiens) (UniProt P49137); details: Compound concentration 1000.0 nM
[2] = target: Mitogen-activated protein kinase 10 (Homo sapiens) (UniProt P53779); assay: MAPK10 Invitrogen selectivity data (BI); details: Compound concentration 3.0 uM
[3] = target: Protein kinase C alpha type (Homo sapiens) (UniProt P17252); assay: PRKCA Invitrogen selectivity data (BI); details: Compound concentration 3.0 uM
[4] = target: Serine/threonine-protein kinase WNK2 (Homo sapiens) (UniProt Q9Y3S1); assay: WNK2 Invitrogen selectivity data (BI); details: Compound concentration 3.0 uM
Chain of Serine/threonine-protein kinase WNK2 (Homo sapiens) (Q9Y3S1 whole entry): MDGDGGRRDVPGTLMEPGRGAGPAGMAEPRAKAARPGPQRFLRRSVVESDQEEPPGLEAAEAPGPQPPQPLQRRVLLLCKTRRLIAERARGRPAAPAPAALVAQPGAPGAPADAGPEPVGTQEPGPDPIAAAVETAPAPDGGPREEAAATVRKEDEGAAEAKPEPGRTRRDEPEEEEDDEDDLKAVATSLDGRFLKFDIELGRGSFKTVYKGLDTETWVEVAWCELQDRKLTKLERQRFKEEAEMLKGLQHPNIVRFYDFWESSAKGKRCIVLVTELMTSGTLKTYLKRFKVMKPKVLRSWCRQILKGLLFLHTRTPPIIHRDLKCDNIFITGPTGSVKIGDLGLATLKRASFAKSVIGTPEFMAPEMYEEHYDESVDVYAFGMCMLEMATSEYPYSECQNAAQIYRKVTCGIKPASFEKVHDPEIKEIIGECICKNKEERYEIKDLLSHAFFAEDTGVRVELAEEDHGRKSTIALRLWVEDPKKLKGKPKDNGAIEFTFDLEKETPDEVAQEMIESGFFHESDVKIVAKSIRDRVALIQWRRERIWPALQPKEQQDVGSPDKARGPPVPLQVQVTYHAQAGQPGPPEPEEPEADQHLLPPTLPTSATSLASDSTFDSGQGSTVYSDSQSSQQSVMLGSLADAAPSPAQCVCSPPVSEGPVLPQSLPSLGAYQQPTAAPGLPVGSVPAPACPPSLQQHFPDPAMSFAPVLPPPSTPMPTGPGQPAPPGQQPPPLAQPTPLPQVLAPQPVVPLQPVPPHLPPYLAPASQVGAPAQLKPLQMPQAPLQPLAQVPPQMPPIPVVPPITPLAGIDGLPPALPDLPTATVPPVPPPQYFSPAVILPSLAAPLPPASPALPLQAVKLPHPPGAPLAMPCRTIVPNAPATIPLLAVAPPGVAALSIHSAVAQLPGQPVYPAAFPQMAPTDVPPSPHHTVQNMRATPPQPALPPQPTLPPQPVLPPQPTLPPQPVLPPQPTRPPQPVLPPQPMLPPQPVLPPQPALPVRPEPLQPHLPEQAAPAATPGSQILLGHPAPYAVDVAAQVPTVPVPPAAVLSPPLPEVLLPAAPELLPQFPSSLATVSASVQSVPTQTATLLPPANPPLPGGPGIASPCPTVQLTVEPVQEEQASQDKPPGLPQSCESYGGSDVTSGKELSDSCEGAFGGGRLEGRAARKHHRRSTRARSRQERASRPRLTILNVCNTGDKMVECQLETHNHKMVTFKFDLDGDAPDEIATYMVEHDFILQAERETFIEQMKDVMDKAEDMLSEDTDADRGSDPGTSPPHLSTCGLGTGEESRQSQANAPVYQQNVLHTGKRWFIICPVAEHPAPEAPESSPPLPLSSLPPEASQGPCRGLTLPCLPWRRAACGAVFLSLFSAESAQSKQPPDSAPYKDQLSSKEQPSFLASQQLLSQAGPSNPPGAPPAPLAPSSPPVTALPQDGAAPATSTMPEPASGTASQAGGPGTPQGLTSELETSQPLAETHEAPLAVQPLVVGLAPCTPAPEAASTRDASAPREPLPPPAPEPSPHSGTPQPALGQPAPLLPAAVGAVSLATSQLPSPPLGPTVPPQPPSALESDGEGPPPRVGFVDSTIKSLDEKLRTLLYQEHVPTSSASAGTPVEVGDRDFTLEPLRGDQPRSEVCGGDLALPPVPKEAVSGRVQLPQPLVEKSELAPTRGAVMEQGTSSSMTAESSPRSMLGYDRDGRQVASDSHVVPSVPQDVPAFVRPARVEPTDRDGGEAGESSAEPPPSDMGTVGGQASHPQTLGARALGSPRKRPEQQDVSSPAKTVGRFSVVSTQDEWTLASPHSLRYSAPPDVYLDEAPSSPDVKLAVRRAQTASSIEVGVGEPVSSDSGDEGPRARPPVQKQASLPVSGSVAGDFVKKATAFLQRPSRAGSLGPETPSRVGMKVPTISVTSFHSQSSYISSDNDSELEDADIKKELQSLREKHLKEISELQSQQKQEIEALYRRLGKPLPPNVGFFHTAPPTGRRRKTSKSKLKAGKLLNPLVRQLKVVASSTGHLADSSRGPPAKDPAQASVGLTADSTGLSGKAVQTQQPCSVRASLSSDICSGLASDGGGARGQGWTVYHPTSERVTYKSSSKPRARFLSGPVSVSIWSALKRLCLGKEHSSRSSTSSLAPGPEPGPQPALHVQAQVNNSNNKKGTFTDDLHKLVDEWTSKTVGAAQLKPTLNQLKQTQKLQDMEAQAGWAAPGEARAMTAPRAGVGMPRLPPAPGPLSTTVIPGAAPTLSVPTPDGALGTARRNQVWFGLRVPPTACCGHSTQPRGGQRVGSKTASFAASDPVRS

[5] = target: T1, Rhodopsin kinase GRK7 (Homo sapiens) (UniProt Q8WTQ7); assay: GRK7 Invitrogen selectivity data (BI); details: Compound concentration 3.0 uM
T1 sequence (whole entry): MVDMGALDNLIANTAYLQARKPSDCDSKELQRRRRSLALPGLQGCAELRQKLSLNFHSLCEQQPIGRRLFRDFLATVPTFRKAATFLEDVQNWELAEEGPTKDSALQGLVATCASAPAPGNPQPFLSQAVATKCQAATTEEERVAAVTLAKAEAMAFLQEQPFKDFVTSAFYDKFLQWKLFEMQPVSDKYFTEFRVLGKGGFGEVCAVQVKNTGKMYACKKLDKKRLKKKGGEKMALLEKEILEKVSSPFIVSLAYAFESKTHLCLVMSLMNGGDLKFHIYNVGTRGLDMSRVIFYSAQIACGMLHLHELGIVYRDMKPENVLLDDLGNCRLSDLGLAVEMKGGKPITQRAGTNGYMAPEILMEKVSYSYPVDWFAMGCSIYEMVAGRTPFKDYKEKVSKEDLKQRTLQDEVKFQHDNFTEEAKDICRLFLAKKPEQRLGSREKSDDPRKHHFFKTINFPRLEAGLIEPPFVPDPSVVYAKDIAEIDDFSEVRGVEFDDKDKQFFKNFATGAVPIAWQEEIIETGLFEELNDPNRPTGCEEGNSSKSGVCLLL

[6] = target: MAP kinase-interacting serine/threonine-protein kinase 1 (Homo sapiens) (UniProt Q9BUB5); assay: MKNK1 Invitrogen selectivity data (BI); details: Compound concentration 3.0 uM
[7] = target: Androgen receptor (Homo sapiens) (UniProt P10275); assay: ANDROGEN/H Cerep selectivity data (BI); details: Compound concentration 20.0 uM
Chain of Androgen receptor (Homo sapiens) (P10275 whole entry): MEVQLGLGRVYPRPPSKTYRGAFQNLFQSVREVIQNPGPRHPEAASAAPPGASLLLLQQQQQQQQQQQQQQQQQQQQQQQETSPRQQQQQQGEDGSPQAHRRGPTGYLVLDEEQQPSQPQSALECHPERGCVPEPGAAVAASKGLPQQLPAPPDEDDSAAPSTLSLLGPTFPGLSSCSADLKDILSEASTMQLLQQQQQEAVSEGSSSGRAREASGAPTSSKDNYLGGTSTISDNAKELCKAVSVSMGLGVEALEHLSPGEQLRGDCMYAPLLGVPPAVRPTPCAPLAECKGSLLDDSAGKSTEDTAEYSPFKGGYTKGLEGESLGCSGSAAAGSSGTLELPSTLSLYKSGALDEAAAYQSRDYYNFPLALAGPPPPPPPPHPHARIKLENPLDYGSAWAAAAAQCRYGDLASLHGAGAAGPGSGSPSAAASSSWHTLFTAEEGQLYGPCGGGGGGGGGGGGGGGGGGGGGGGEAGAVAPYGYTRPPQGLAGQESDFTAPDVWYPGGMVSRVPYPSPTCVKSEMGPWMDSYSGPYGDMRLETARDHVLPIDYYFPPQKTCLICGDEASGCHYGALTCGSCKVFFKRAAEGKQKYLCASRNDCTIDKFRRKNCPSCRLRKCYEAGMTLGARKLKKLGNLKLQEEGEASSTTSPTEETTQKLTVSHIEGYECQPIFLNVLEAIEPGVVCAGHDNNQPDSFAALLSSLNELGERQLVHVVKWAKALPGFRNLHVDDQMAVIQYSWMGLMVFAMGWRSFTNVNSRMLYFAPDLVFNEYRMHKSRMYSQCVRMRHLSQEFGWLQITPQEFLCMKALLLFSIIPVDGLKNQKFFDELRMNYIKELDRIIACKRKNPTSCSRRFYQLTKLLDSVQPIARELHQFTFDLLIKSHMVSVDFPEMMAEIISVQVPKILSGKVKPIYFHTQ

[8] = target: MAP kinase-activated protein kinase 3 (Homo sapiens) (UniProt Q16644); assay: MAPKAPK3 Invitrogen selectivity data (BI); details: Compound concentration 3.0 uM
[9] = target: T2, Muscarinic acetylcholine receptor M2 (Homo sapiens) (UniProt P08172); assay: M2/HU Eurofins-Panlabs selectivity data (BI); details: Compound concentration 10.0 uM
T2 sequence (whole entry): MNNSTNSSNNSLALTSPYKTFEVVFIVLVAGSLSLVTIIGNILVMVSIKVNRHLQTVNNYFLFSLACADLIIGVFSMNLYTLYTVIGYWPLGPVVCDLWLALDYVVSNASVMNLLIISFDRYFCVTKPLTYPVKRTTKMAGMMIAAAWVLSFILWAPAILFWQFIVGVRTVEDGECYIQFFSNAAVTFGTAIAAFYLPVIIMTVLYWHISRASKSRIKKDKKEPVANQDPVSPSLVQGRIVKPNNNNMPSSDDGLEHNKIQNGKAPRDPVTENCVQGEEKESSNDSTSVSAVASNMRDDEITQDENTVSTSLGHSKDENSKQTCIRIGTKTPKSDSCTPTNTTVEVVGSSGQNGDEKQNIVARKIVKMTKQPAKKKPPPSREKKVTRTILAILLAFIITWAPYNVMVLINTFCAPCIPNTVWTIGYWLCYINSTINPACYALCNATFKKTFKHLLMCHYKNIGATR

[10] = target: T3, 5-hydroxytryptamine receptor 3A (Homo sapiens) (UniProt P46098); assay: 5HT3/H Cerep selectivity data (BI); details: Compound concentration 20.0 uM
T3 sequence (whole entry): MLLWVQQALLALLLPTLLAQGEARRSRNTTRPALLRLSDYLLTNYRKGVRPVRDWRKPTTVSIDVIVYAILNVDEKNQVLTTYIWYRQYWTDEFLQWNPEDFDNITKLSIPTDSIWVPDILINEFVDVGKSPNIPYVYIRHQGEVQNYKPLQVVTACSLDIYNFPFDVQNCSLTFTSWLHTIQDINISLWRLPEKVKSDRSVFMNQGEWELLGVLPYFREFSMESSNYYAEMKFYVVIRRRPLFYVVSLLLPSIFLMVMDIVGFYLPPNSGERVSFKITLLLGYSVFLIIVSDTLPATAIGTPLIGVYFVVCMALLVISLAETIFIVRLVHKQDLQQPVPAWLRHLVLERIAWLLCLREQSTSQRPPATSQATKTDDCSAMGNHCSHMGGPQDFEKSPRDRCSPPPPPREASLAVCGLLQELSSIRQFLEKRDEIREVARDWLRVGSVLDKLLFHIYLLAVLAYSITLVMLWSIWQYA

[11] = target: T4, Tyrosine-protein kinase Mer (Homo sapiens) (UniProt Q12866); assay: MERTK Invitrogen selectivity data (BI); details: Compound concentration 3.0 uM
T4 sequence (whole entry): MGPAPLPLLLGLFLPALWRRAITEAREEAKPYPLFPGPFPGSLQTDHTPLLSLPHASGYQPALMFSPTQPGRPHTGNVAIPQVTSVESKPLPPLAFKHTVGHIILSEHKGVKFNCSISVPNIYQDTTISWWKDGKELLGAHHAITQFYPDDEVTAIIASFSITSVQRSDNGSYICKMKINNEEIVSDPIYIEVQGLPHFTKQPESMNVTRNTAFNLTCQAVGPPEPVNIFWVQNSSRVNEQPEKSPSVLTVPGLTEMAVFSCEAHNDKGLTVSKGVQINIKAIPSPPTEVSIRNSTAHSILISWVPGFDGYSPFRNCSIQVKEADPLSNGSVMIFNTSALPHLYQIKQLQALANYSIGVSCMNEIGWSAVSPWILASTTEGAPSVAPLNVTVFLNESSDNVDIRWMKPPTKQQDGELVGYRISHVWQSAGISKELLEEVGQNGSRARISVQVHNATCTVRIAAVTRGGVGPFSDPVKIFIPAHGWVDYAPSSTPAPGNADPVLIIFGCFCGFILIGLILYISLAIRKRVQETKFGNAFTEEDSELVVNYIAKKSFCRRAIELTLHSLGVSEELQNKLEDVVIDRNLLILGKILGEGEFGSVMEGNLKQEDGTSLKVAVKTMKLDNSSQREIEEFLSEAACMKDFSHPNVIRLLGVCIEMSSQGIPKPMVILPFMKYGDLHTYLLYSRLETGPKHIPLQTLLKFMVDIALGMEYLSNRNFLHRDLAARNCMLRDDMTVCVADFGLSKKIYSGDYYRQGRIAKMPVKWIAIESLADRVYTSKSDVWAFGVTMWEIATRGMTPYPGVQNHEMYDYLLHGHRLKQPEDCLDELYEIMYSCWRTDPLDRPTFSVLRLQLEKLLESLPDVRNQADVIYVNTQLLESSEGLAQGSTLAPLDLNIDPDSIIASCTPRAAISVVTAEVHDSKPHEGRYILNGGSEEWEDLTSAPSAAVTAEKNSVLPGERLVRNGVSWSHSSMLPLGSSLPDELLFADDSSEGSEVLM

[12] = target: Macrophage colony-stimulating factor 1 receptor (Homo sapiens) (UniProt P07333); assay: CSF1R Invitrogen selectivity data (BI); details: Compound concentration 3.0 uM
Chain of Macrophage colony-stimulating factor 1 receptor (Homo sapiens) (P07333 whole entry): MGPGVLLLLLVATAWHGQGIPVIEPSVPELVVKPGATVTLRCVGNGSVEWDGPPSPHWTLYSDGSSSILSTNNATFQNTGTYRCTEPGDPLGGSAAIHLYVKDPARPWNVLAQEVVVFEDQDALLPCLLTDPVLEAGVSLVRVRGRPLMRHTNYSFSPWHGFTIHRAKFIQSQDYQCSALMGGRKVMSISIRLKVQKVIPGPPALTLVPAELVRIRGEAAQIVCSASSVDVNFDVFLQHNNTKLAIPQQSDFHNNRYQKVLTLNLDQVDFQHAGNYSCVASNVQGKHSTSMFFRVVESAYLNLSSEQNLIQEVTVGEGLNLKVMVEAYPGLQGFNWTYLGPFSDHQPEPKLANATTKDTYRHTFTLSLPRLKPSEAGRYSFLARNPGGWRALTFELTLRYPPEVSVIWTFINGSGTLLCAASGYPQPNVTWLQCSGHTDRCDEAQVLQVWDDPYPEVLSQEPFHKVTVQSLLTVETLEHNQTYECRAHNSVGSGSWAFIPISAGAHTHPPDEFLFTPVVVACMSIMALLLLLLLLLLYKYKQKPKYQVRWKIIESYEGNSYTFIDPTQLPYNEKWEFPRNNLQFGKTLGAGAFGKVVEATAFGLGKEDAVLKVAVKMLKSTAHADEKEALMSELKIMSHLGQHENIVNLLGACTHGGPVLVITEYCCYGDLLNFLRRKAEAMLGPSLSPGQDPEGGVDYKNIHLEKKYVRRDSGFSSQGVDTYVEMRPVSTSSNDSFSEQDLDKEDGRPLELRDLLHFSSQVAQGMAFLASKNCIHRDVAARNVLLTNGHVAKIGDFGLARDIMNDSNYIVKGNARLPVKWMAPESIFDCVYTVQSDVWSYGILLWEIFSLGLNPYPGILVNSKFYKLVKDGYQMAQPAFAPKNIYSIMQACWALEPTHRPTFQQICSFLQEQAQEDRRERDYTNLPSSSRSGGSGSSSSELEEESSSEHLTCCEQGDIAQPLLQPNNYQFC

Measured: residual activity

Chain of Mitogen-activated protein kinase 10 (Homo sapiens) (P53779 whole entry): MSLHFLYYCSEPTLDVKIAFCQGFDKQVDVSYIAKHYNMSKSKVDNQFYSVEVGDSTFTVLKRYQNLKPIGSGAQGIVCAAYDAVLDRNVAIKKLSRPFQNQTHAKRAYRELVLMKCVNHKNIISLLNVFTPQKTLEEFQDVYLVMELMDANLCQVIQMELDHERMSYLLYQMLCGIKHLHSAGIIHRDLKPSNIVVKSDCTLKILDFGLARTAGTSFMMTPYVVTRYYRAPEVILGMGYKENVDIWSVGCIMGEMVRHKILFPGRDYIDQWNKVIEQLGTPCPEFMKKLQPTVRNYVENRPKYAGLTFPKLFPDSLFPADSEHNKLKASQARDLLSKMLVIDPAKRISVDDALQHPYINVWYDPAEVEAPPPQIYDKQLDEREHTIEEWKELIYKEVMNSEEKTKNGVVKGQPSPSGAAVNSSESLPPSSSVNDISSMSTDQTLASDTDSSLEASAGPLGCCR
Chain of MAP kinase-activated protein kinase 2 (Homo sapiens) (P49137 whole entry, looked up): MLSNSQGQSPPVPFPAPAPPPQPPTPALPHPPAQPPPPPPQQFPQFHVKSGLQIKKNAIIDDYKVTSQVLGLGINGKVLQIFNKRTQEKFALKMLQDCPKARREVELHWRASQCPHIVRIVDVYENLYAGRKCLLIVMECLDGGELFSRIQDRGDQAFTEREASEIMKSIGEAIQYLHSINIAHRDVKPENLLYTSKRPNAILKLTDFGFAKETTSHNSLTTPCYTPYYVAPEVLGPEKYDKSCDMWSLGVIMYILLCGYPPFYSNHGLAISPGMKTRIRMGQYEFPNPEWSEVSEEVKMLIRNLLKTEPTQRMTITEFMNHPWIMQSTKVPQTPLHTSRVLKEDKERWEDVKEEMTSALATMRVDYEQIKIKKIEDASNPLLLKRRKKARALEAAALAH

CN(C)C(=O)Cn1cc(-c2nc(C3(c4ccc(-c5cnc(N)nc5)cc4)CC3)no2)cn1 [BI 0153]
inactive: [1] 99%

CN(C)C(=O)Cn1cc(-c2nc([C@@](C)(c3ccc(-c4cnc(N)nc4)cc3)C3CC3)no2)cn1 [BI 665915]
inactive: [2] 96% | [3] 102% | [4] 96% | [5] 101% | [6] 99% | [7] 102% | [8] 98.5% | [9] 98% | [10] 100% | [11] 94% | [12] 73%
